The target of assay [1] is Serine/threonine-protein kinase mTOR (Homo sapiens, UniProt P42345). The assay can be described thus: Inhibition of Mammalian target of Rapamycin mTOR.
In assay [2] the target is Serine/threonine-protein kinase ATR (Homo sapiens, UniProt Q13535). The assay can be described thus: Inhibition of Ataxia telangiectasia related protein ATR kinase.
Assay [3] concerns the target Serine-protein kinase ATM (Homo sapiens, UniProt Q13315). The assay can be described thus: Inhibition of Mutated in ataxia telangiectasia protein ATM kinase.
In assay [4] the target is Phosphatidylinositol 4,5-bisphosphate 3-kinase catalytic subunit alpha isoform (Homo sapiens, UniProt P42336). The assay can be described thus: Inhibition of Phosphatidylinositol 3-kinase p110 alpha subunit.
Assay [5] concerns the target T1, DNA-dependent protein kinase catalytic subunit (Homo sapiens, UniProt P78527). Kind of assay: Inhibitory activity against DNA-dependent protein kinase (DNA-PK) at 0.5 uM.
Assay [6] deals with T1, DNA-dependent protein kinase catalytic subunit. Kind of assay: Inhibitory activity against DNA-dependent protein kinase (DNA-PK).

These results are taken from ChEMBL document CHEMBL1138727 (Bioorg Med Chem Lett, 2004).

As a reminder, the IC50 is the concentration that gives 50% inhibition.

Serine-protein kinase ATM, sequence (Q13315 2-3056 limits assumed, change not shown): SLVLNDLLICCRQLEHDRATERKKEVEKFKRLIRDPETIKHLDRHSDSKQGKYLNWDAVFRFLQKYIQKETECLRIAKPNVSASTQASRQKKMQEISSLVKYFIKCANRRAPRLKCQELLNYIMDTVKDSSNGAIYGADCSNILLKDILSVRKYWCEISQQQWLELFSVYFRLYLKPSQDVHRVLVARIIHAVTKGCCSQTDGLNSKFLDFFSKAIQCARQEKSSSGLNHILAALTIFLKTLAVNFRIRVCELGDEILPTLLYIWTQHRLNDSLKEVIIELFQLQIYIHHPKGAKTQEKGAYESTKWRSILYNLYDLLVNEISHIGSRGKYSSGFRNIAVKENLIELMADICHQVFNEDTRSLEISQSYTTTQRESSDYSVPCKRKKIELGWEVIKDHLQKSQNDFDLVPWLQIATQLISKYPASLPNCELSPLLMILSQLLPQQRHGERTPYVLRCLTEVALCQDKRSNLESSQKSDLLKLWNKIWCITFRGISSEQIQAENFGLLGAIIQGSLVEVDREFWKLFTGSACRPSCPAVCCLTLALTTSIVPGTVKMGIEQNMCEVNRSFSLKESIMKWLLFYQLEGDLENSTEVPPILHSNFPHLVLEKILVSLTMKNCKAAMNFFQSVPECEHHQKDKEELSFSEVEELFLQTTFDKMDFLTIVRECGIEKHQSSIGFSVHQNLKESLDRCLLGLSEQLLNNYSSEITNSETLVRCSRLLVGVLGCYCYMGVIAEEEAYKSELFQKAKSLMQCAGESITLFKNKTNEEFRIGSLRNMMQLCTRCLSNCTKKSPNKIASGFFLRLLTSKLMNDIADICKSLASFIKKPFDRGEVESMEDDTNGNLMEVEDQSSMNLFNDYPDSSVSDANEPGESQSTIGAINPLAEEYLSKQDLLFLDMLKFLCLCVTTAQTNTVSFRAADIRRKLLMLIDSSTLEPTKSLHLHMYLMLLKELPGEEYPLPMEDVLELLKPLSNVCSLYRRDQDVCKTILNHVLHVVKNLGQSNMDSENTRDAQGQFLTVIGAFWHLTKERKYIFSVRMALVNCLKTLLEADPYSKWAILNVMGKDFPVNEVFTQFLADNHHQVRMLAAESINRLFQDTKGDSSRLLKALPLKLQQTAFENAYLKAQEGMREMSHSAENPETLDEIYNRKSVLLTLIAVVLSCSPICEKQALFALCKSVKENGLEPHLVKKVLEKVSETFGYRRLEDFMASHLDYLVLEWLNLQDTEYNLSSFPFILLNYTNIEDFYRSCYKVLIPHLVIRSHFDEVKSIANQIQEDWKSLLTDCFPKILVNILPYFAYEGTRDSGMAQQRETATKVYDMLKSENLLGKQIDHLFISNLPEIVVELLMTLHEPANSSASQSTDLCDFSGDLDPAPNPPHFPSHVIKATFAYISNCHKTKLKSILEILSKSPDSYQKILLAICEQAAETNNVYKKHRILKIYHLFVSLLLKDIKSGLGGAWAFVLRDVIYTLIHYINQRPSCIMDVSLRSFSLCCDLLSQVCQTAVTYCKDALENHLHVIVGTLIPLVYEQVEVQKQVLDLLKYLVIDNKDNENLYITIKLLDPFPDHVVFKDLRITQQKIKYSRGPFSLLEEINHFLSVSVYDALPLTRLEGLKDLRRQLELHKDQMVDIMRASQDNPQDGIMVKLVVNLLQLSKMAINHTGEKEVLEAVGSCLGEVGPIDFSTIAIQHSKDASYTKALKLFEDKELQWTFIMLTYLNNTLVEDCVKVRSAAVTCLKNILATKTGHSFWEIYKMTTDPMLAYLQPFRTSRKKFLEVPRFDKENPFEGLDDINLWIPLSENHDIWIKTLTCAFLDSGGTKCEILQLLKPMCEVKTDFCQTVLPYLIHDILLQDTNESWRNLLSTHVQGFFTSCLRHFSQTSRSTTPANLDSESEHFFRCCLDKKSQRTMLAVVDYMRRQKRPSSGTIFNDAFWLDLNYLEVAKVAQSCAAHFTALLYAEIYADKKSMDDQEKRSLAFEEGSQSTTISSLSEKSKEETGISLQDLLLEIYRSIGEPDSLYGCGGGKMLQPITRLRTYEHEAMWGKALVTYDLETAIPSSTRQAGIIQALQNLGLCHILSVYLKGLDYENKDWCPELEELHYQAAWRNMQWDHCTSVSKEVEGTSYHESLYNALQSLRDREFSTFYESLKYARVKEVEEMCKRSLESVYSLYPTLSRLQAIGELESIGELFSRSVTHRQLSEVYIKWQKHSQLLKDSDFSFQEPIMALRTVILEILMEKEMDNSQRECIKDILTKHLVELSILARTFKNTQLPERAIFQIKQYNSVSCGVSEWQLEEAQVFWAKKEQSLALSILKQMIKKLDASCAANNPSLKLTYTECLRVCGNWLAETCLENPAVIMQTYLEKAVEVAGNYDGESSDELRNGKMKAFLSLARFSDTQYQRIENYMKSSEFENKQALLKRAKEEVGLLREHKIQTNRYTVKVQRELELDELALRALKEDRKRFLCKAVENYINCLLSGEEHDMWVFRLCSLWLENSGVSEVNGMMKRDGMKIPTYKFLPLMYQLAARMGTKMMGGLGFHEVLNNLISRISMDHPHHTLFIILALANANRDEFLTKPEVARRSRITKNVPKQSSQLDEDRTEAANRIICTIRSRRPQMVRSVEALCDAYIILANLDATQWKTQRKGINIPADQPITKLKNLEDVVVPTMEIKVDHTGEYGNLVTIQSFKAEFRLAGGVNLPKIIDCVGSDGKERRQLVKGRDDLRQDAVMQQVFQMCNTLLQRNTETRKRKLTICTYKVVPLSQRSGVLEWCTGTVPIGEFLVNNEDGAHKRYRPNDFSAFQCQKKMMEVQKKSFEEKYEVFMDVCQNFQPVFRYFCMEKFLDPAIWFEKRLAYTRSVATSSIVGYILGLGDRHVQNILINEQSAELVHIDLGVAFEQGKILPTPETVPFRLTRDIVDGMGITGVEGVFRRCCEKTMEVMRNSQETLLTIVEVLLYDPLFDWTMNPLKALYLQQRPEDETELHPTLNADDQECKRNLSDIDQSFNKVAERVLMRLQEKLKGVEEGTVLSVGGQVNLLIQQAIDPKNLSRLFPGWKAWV
Phosphatidylinositol 4,5-bisphosphate 3-kinase catalytic subunit alpha isoform, sequence (P42336 whole entry, canonical isoform): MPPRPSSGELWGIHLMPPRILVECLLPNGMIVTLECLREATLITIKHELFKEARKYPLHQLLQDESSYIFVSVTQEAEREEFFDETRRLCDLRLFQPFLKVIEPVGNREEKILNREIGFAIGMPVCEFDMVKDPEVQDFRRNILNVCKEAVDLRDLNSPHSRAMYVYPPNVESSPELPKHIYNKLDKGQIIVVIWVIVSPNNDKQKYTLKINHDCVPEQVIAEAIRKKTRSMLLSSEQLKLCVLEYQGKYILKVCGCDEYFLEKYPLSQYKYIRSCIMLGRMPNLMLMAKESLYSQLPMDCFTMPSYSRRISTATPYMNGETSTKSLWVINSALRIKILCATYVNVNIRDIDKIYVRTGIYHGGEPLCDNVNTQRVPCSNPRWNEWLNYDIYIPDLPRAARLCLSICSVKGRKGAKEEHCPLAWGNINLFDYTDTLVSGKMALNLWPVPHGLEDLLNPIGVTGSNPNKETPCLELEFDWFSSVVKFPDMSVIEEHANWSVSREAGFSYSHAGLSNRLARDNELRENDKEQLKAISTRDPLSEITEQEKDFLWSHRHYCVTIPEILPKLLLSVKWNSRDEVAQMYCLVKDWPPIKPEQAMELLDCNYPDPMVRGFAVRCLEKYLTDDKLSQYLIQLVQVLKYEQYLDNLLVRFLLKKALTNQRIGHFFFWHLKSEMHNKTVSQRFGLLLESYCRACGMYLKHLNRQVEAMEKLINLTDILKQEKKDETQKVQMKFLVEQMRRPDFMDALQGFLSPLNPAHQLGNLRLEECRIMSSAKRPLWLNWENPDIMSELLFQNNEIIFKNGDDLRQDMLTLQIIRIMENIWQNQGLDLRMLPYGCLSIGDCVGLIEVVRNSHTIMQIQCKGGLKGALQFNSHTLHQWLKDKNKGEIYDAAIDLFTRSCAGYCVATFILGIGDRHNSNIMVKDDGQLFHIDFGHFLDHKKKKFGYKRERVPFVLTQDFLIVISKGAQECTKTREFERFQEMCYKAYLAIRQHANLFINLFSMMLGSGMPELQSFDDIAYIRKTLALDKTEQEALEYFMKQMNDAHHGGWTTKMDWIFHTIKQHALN

In the case of `O=c1cc(N2CCOCC2)oc2c1ccc1ccccc12`, the IC50 in assay [1] is 6.4 µM; in assay [2], > 100 µM; in assay [3], > 100 µM; in assay [4], 13 µM.

In the case of `O=c1cc(N2CCOCC2)oc2c(-c3cccc4c3oc3ccccc34)cccc12`, in assay [5], the 50% inhibitory concentration (IC50) stood at 0.04 µM.

In turn, `CC(=O)c1ccc(-c2cccc3c(=O)cc(N4CCOCC4)oc23)s1` registered an IC50 in assay [5] of 0.8 µM. This IC50 is about 20-fold higher than that of the compound before.

Turning to `O=c1cc(N2CCOCC2)oc2c(-c3cccc4c3sc3ccccc34)cccc12`, the IC50 in assay [1] is 1.7 µM; in assay [2], > 100 µM; in assay [3], > 100 µM; in assay [4], 5 µM; in assay [5], 0.02 µM; in assay [6], 0.014 µM.

Compound `O=c1cc(N2CCOCC2)oc2c(-c3ccc(CO)cc3)cccc12` gave an IC50 in assay [5] of 0.6 µM.

`O=c1cc(N2CCOCC2)oc2c(-c3ccsc3)cccc12`: in assay [5], the IC50 worked out at 0.3 µM.

`O=c1cc(N2CCOCC2)oc2c(-c3cc4ccccc4s3)cccc12` displayed an IC50 in assay [5] of 0.8 µM. Compared with the last compound, the IC50 is about 2.7-fold higher.

For the compound `O=c1cc(N2CCOCC2)oc2c(-c3cccs3)cccc12`, the IC50 in assay [5] worked out at 0.3 µM. Against the preceding compound, the IC50 is about 2.7-fold lower.

For the compound `COc1ccc(-c2cccc3c(=O)cc(N4CCOCC4)oc23)cc1`, half-maximal inhibition in assay [5] (IC50) required 0.9 µM. Against the preceding compound, the IC50 is about 3-fold higher.

`O=c1cc(N2CCOCC2)oc2ccccc12`: 1.3 µM corresponded to half-maximal inhibition in assay [5] (IC50).

In turn, `CC1CN(c2cc(=O)c3ccc4ccccc4c3o2)CCO1` (stereo not drawn) yielded a half-maximal inhibitory concentration (IC50) in assay [5] of 0.19 µM.

Take `O=c1cc(N2CCOCC2)oc2c(-c3ccccc3)cccc12` [LY-294002]: the IC50 is 2.5 µM in assay [1], > 100 µM in assay [2], > 100 µM in assay [3] and 1.2 µM in assay [6].
